{"source": "patent US7354941B2", "about": "“Nicotinamide benzofused-heterocyclyl derivatives useful as selective inhibitors of PDE4 isozymes” (Pfizer Products Inc., priority 2000, dated 2008)", "key": {"PDE4": {"tested_on": "PDE4", "conditions": "cited from earlier work"}, "guinea-pig trachea": {"tested_on": "guinea-pig trachea", "conditions": "cited from earlier work"}, "allergic rhinitis": {"tested_on": "allergic rhinitis", "conditions": "in vivo; cited from earlier work"}, "[1]": {"conditions": "in vivo; cited from earlier work"}, "atopic dermatitis": {"tested_on": "atopic dermatitis", "conditions": "topical, cited from earlier work"}, "[2]": {"tested_on": "high-affinity rolipram binding site (Sr)", "conditions": "cited from earlier work"}, "rhinorrhea": {"tested_on": "rhinorrhea", "conditions": "antigen-challenged pig; cited from earlier work"}, "[3]": {"tested_on": "histamine-induced and antigen-induced bronchoconstriction", "conditions": "guinea-pig; cited from earlier work"}, "colitis": {"tested_on": "colitis", "conditions": "rat; cited from earlier work"}, "[4]": {"tested_on": "antigen-induced bronchoconstriction", "conditions": "guinea-pig; cited from earlier work"}, "TNF-α mRNA expression": {"tested_on": "TNF-α mRNA expression", "conditions": "collagen II treated mice; cited from earlier work"}, "[5]": {"tested_on": "rheumatoid arthritis patients", "conditions": "35 patients, t.i.d., placebo-controlled; cited from earlier work"}, "[6]": {"tested_on": "streptococcal cell wall (SCW)-induced arthritis", "conditions": "in vivo; cited from earlier work"}, "[7]": {"tested_on": "antigen-induced lung eosinophilia", "conditions": "guinea-pig; cited from earlier work"}, "[8]": {"tested_on": "antigen-induced bronchospasm", "conditions": "rat; cited from earlier work"}, "[9]": {"tested_on": "psoriatic epidermal slices", "conditions": "cited from earlier work"}, "psoriatic lesions": {"tested_on": "psoriatic lesions", "conditions": "two double-blind studies versus vehicle; cited from earlier work"}, "[10]": {"tested_on": "human peripheral blood mononuclear cells (HPBM)", "conditions": "normal patients and subjects with atopic dermatitis; cited from earlier work"}, "epidermal basal cells": {"tested_on": "epidermal basal cells", "conditions": "primary culture; cited from earlier work"}, "[11]": {"tested_on": "endotoxin-induced acute renal failure", "conditions": "cited from earlier work"}, "patients with COPD": {"tested_on": "patients with COPD", "conditions": "cited from earlier work"}, "patients": {"tested_on": "patients", "conditions": "orally 5, 10, and 15 mg b.i.d., week 2; cited from earlier work"}, "[12]": {"tested_on": "seratonin-induced bronchoconstriction", "conditions": "dog; cited from earlier work"}, "[13]": {"tested_on": "Patients with severe COPD", "conditions": "cited from earlier work; for mean pulmonary artery pressure: oral administration, severe COPD"}, "[14]": {"tested_on": "isolated pulmonary artery rings", "conditions": "rings from normal rats and rats with hypoxia-induced pulmonary hypertension; cited from earlier work"}, "[15]": {"tested_on": "patients suffering from septic shock", "conditions": "1 mg/kg/hr, after 24 hours; cited from earlier work"}, "[16]": {"tested_on": "lipopolysaccharide-induced bowel erythrocyte extravasation", "conditions": "pretreatment i.p. 3×, rats; cited from earlier work"}}, "data": [{"smiles": "O=C(NCc1ccc(C(O)C(F)(F)F)cc1)c1cccnc1Oc1ccc2nonc2c1", "note": "(racemic) [Example 5, (±)-2-[Benzo[2,1,3]oxadiazol-5-yloxy]-N-[4-[2,2,2-trifluoro-1-hydroxy-ethyl]-benzyl]-nicotinamide]", "values": [{"measurement": "melting point", "result": "164 to 166", "unit": "°C"}]}, {"smiles": "CC(O)c1ccc(CNC(=O)c2cccnc2Oc2ccc3nonc3c2)s1", "note": "(racemic) [Example 6, (±)-2-[Benzo[2,1,3]oxadiazol-5-yloxy]-N-[5-[1-hydroxy-ethyl]-thiophen-2-ylmethyl]-nicotinamide]", "values": [{"measurement": "melting point", "result": "81 to 83", "unit": "°C"}]}, {"smiles": "CC(NC(=O)c1cccnc1Oc1ccc2nonc2c1)c1ccc(C(C)(C)O)cc1F", "note": "(racemic) [Example 8, (±)-2-(Benzo[2,1,3]oxadiazol-5-yloxy)-N-{1-[2-fluoro-4-(1-hydroxy-1-methyl-ethyl)-phenyl]-ethyl}-nicotinamide]", "values": [{"measurement": "melting point", "result": "128 to 130", "unit": "°C"}]}, {"smiles": "CC(NC(=O)c1cccnc1Oc1ccc2nonc2c1)c1ccc(C(C)(C)O)cc1", "note": "(racemic) [Example 17, (±)-2-(Benzo[2,1,3]oxadiazol-5-yloxy)-N-{1-[4-(1-hydroxy-1-methyl-ethyl)-phenyl]ethyl}-nicotinamide]", "values": [{"measurement": "melting point", "result": "116 to 117", "unit": "°C"}]}, {"smiles": "COc1ccc(-c2nc3cnccc3o2)c2c1OC1(CCCC1)C2", "note": "[(0.0.48)]", "values": [{"measurement": "IC50", "setting": "PDE4", "result": 2.5, "unit": "nM"}]}, {"smiles": "O=S1(=O)CCN(c2nc(NC3CC3)nc(C3CC3)n2)C1", "note": "[(0.0.56)]", "values": [{"measurement": "relaxant activity, guinea-pig trachea model", "setting": "guinea-pig trachea", "result": "potent relaxant agents"}, {"measurement": "IC50", "setting": "PDE4", "result": 150, "unit": "nM"}]}, {"smiles": "CC1CC1c1nc(NC2CC2)nc(N2CCOCC2)n1", "note": "(stereo not shown) [(0.0.57)]", "values": [{"measurement": "relaxant activity, guinea-pig trachea model", "setting": "guinea-pig trachea", "result": "potent relaxant agents"}, {"measurement": "IC50", "setting": "PDE4", "result": 140, "unit": "nM"}]}, {"smiles": "O=C(Nc1c(Cl)cncc1Cl)C(=O)c1cn(Cc2ccc(F)cc2)c2ccc(O)cc12", "note": "[AWD-12,281]", "values": [{"measurement": "activity in a rat model of allergic rhinitis", "setting": "allergic rhinitis", "result": "active"}]}, {"smiles": "Nc1nc2c([nH]1)c(=O)n(CC1CC1)c(=O)n2CC1CC1", "note": "[BRL-61,063]", "values": [{"measurement": "adverse events of nausea and vomiting", "setting": "[1]", "result": "adverse events of nausea and vomiting"}]}, {"smiles": "COc1ccc(C2CNC(=O)NC2)cc1O[C@H]1C[C@@H]2CC[C@H]1C2", "note": "[CP-80,633]", "values": [{"measurement": "emesis", "setting": "[1]", "result": "elicit emesis"}, {"measurement": "inflammatory parameters", "setting": "atopic dermatitis; bilaterally over eight days, twenty patients", "result": "effectively inhibit all of the inflammatory parameters tested"}, {"measurement": "adverse effects", "setting": "atopic dermatitis; eight days", "result": "no adverse effects"}, {"measurement": "affinity at the Sr", "setting": "[2]", "result": "high affinity at the Sr"}]}, {"smiles": "CC(C)(O)c1ccc(CNC(=O)c2cccnc2Oc2ccc3nonc3c2)c(F)c1", "note": "[Example 2, 2-[Benzo[2,1,3]oxadiazol-5-yloxy]-N-[2-fluoro-4-[1-hydroxy-1-methyl-ethyl]-benzyl]-nicotinamide]", "values": [{"measurement": "melting point", "result": "160 to 161", "unit": "°C"}]}, {"smiles": "CC(=O)c1ccc(CNC(=O)c2cccnc2Oc2ccc3nonc3c2)cc1", "note": "[Example 7, N-[4-Acetyl-benzyl]-2-[benzo[2,1,3]oxadiazol-5-yloxy]-nicotinamide]", "values": [{"measurement": "melting point", "result": "154 to 156", "unit": "°C"}]}, {"smiles": "CC(C)(O)c1ccc(CNC(=O)c2cccnc2Oc2ccc3nonc3c2)c(Cl)c1", "note": "[Example 9, 2-(Benzo[2,1,3]oxadiazol-5-yloxy)-N-[2-chloro-4-(1-hydroxy-1-methyl-ethyl)-benzyl]-nicotinamide]", "values": [{"measurement": "melting point", "result": "171 to 173", "unit": "°C"}]}, {"smiles": "CCCn1c(=O)c2c(C)nc(CC)n2c2nc(OC)ccc21", "note": "[Example D-22888]", "values": [{"measurement": "anti-allergic effect and rhinorrhea", "setting": "rhinorrhea", "result": "exhibit a strong anti-allergic affect and to inhibit rhinorrhea"}]}, {"smiles": "O=c1c2[nH]cnc2c2cccnc2n1-c1ccccc1", "note": "[KF17625]", "values": [{"measurement": "inhibition of histamine- and antigen-induced bronchoconstriction, PAF- and antigen-induced eosinophilia, AHR, bronchospasm, anaphylactic bronchoconstriction", "setting": "[3]", "result": "activity"}]}, {"smiles": "O=c1c2c(ncn2Cc2cccnc2)c2cccnc2n1-c1ccccc1", "note": "[KF19514]", "values": [{"measurement": "inhibition of histamine- and antigen-induced bronchoconstriction, PAF- and antigen-induced eosinophilia, AHR, bronchospasm, anaphylactic bronchoconstriction", "setting": "[3]", "result": "activity"}]}, {"smiles": "CCCn1c(=O)c2[nH]cnc2n(-c2ccc(Cl)cc2)c1=O", "note": "[LAS-31025]", "values": [{"measurement": "effects in dextran sulfate induced colitis model", "setting": "colitis", "result": "beneficial effects comparable to prednisolone"}, {"measurement": "effects in models of colitis", "setting": "colitis", "result": "beneficial effects"}, {"measurement": "inhibition of antigen-induced bronchoconstriction", "setting": "[4]", "result": "active"}]}, {"smiles": "COc1ccc(C(=O)Nc2c(Cl)cncc2Cl)cc1OC1CCCC1", "note": "[RP-73,401]", "values": [{"measurement": "emesis", "setting": "[1]", "result": "elicit emesis"}, {"measurement": "TNF-α mRNA expression at the pannus/cartilage interface of paw joints", "setting": "TNF-α mRNA expression", "result": "decrease TNF-α mRNA expression"}, {"measurement": "affinity at the Sr", "setting": "[2]", "result": "high affinity at the Sr"}, {"measurement": "clinical improvement", "setting": "[5]", "result": "positive trend towards clinical improvement"}, {"measurement": "disease: joint destruction, synovitis, and fibrosis", "setting": "[6]", "result": "significant amelioration of disease"}, {"measurement": "inhibition of antigen-induced lung, BAL and airway eosinophilia, EPO, PAF- and ozone-induced AHR, IL-5 induced pleural eosinophila", "setting": "[7]", "result": "active"}]}, {"smiles": "COc1ccc(CNc2c(C)noc2C)cc1OC1CCCC1", "note": "[RPR-132294]", "values": [{"measurement": "inhibition of antigen-induced bronchospasm", "setting": "[8]", "result": "activity in the inhibition of antigen-induced bronchospasm"}]}, {"smiles": "O=c1c2cccnc2n(-c2cccc([N+](=O)[O-])c2)c(=O)n1Cc1ccncc1", "note": "[RS-23,544]", "values": [{"measurement": "emesis", "setting": "[1]", "result": "elicit emesis"}, {"measurement": "affinity at the Sr", "setting": "[2]", "result": "high affinity at the Sr"}]}, {"smiles": "COc1ccc(CC2CNC(=O)N2)cc1OC1CCCC1", "note": "(stereo not shown) [Ro 20-1724]", "values": [{"measurement": "increase in cAMP concentration", "setting": "[9]; keratomed psoriatic epidermis", "result": 1395, "unit": "%"}, {"measurement": "cAMP concentrations over controls", "setting": "[9]; psoriatic epidermal slices and keratomed psoriatic epidermal slices", "result": "very marked elevation of cAMP concentrations over controls"}, {"measurement": "psoriatic lesions and adverse effects", "setting": "psoriatic lesions", "result": "improve psoriatic lesions without adverse systemic or cutaneous effects"}, {"measurement": "inhibition of the proliferation of HPBM", "setting": "[10]", "result": "concentration-related inhibition"}, {"measurement": "cAMP concentrations", "setting": "epidermal basal cells", "result": "three-fold increase"}, {"measurement": "survival rates", "setting": "[11]; endotoxin-treated rats", "result": "improve survival rates"}, {"measurement": "renal vascular resistance, renal blood flow and glomerular filtration rate", "setting": "[11]; post-treatment at 10 μg/kg/min", "result": "markedly attenuates endotoxin-induced increases in renal vascular resistance and decreases in renal blood flow and glomerular filtration rate"}, {"measurement": "urinary cAMP excretion", "setting": "[11]; post-treatment at 10 μg/kg/min", "result": "significantly increases urinary cAMP excretion"}]}, {"smiles": "COc1ccc([C@]2(C#N)CC[C@@H](C(=O)O)CC2)cc1OC1CCCC1", "note": "[SB-207,499]", "values": [{"measurement": "affinity at the Sr", "setting": "[2]", "result": "comparatively low affinity at the Sr"}, {"measurement": "improvement in trough FEV1", "setting": "patients with COPD; 15 mg b.i.d., week 6", "result": 11, "unit": "%"}, {"measurement": "maximum mean difference in trough FEV1 compared with placebo", "setting": "patients with COPD; 15 mg b.i.d., week 6", "result": 160, "unit": "mL"}, {"measurement": "FEV1 and forced vital capacity (FVC)", "setting": "patients with COPD; 15 mg twice a day for six weeks", "result": "increrases in FEV1 and forced vital capacity (FVC)"}, {"measurement": "FEV1", "setting": "patients with COPD; four week trial", "result": "evidence of improved FEV1"}, {"measurement": "trough FEV1 from placebo", "setting": "patients", "result": "significant increases"}]}, {"smiles": "COc1ccc(/C(C)=N/OC(N)=O)cc1OC1CCCC1", "note": "[WAY-PDA-641]", "values": [{"measurement": "inhibition of seratonin-induced bronchoconstriction", "setting": "[12]", "result": "active"}]}, {"smiles": "CSc1ccc(C(=O)c2[nH]c(=O)[nH]c2C)cc1", "note": "[enoximone]", "values": [{"measurement": "mean pulmonary artery pressure", "setting": "[13]", "result": "decreases in mean pulmonary artery pressure"}, {"measurement": "airway resistance", "setting": "[13]; patients hospitalized with decompensated COPD", "result": "reduce airway resistance"}]}, {"smiles": "Cc1[nH]c(=O)c(C#N)cc1-c1ccncc1", "note": "[milrinone]", "values": [{"measurement": "mean pulmonary artery pressure", "setting": "[13]", "result": "decreases in mean pulmonary artery pressure"}, {"measurement": "relaxant activities of isoproterenol and forskolin", "setting": "[14]", "result": "same effect has been observed"}]}, {"smiles": "CC(=O)CCCCn1c(=O)c2c(ncn2C)n(C)c1=O", "note": "[pentoxifylline]", "values": [{"measurement": "IL-6 levels", "setting": "[15]", "result": "significantly increased"}, {"measurement": "TNF-α levels", "setting": "[15]", "result": "significantly lowered"}, {"measurement": "lipopolysaccharide-induced bowel erythrocyte extravasation", "setting": "[16]", "result": "reduces lipopolysaccharide-induced bowel erythrocyte extravasation"}]}]}
